In patent publication US20090022686A1, “PHARMACEUTICAL COMPOSITIONS FOR THE TREATMENT OF SYSTEMIC INFLAMMATORY RESPONSE SYNDROME” (Boehringer Ingelheim Pharma GmbH & Co. KG, priority 2002, published 2009):
Marks after values point to notes of the source that are not given here.

Key:
[1] = tested on: Systemic Inflammatory Response Syndrome (SIRS): Intravenous Lipopolysaccharide Stimulation; assay: Animal model for SIRS: continuous intravenous LPS infusion in rats (Method 2); type: in vivo
Protocol: Animal Model for Systemic Inflammatory Response Syndrome (SIRS): Intravenous Lipopolysaccharide Stimulation (Modified According to Aoki et al. Drug Res. 50: 809; 2000 and Yamazaki et al. Blood Coag. Fibrinol. 10: 321; 1999)
Rats (male, approx. 300 g CrlGlxBrlHan:Wi) were anaesthetised with pentobarbital (60 mg/kg i.p.). To maintain the anaesthetic a pentobarbital drip was set up (22.5 mg/kg/h i.p.). The left jugular vein was cannulated for administration of the substance and the right jugular vein was cannulated for administering the LPS. LPS was given as a continuous infusion for 4 hours (lipopolysaccharide of E. coli serotype 0127:B8 Sigma L-3129 7.5 mg/kg/h). (R)-2-(4-amidinophenylaminomethyl)-1-methyl-5-[1-(carboxymethylamino)-1-(pyrrolidinocarbonyl)-ethyl]-benzimidazole (0.1 mg/kg/h) was administered as a continuous infusion (100 μg/kg/h) one hour after the start of the LPS infusion with a total duration of 3 hours. In order to determine the inflammation parameters, blood was taken from the abdominal artery after a total test period of four hours. From the blood samples the TAT complex (thrombin-antithrombin), interleukin-1β (IL-1β), interleukin-6 (IL-6) and the tumour necrosis factor alpha (TNF-alpha) were determined by ELISA as parameters of a systemic inflammatory reaction. Alanine-aminotransferase (ALT) and creatinin served as enzyme parameters for organ damage to the liver and kidneys.

[2] = tested on: Systemic Inflammatory Response Syndrome (SIRS): Intravenous Lipopolysaccharide Stimulation; assay: Animal model for SIRS: intravenous LPS bolus stimulation in rats (Method 1); type: in vivo; details: for IL-6 / TAT: rat blood, ELISA
Protocol: Animal Model for Systemic Inflammatory Response Syndrome (SIRS): Intravenous Lipopolysaccharide Stimulation (Modified According to Isobe et al. Circulation 2001; 104: 1171-1175)
Rats (male, approx. 300 g CrlGlxBrlHan:Wi) were anaesthetised with pentobarbital (60 mg/kg i.p.). To maintain the anaesthetic a pentobarbital drip was set up (22.5 mg/kg/h i.p.). The carotid artery was cannulated for taking blood samples, the left jugular vein was cannulated for administration of the substance and the right jugular vein was cannulated for administering the LPS. The administration of (R)-2-[…]-5-[1-(carboxymethylamino)-1-(pyrrolidinocarbonyl)-ethyl]-benzimidazole (0.1 mg/kg/h) was started at time t=−60 min as a continuous drip and maintained until the end of the experiment. One hour after the start of the infusion of the substance, a single bolus of LPS was administered (lipopolysaccharide of E. coli serotype 0127:B8 Sigma L-3129 5 mg/kg i.v. bolus) at time t=0 min. In order to determine the coagulation and inflammation parameters, blood was taken via the arterial cannulae at times a) before the infusion of placebo or (R)-2-(4-amidinophenylaminomethyl)-1-methyl-5-[1-(carboxymethylamino)-1-(pyrrolidinocarbonyl)-ethyl]-benzimidazole (−60 minutes), b) before administration of the LPS bolus (0 minutes) and c) 240 minutes after the administration of LPS. From the blood samples the TAT complex (thrombin-antithrombin) and interleukin-6 (IL-6) were determined by ELISA as parameters of a systemic inflammatory reaction.

[3] = LPS 7.5 mg/kg/h × 4 h + 100 μg/kg/h infusion from 1 h after LPS start for 3 h, blood after 4 h, mean ± standard deviation
[4] = result in words, continuous LPS infusion, 0.1 mg/kg/h
[5] = 0 min (before LPS bolus, 1 h after start of infusion), active substance 100 μg/kg/h
[6] = +240 min after LPS 5 mg/kg i.v. bolus, active substance 100 μg/kg/h
[7] = result in words, LPS bolus, 0.1 mg/kg/h
[8] = −60 min (before start of infusion), LPS + active substance 100 μg/kg/h continuous drip

**Q.** For Cn1c(CNc2ccc(C(=N)N)cc2)nc2cc([C@@](C)(NCC(=O)O)C(=O)N3CCCC3)ccc21 [BIBT 986, (R)-2-(4-amidinophenylaminomethyl)-1-methyl-5-[1-(carboxymethylamino)-1-(pyrrolidinocarbonyl)-ethyl]-benzimidazole], which IL-1β [1, 3] is on record?
**A.** 4036 ± 1000 pg/mL

**Q.** And the IL-6 [1, 3]?
**A.** 89579 ± 10069 pg/mL

**Q.** And the TNF-alpha [1, 3]?
**A.** 1003 ± 292 pg/mL

**Q.** What about the creatinin ([1]; kidney damage marker, LPS 7.5 mg/kg/h × 4 h + 100 μg/kg/h infusion for 3 h, blood after 4 h, mean ± standard deviation) of the same compound?
**A.** 40.1 ± 1.8 µmol/L

**Q.** And the ALT ([1]; liver damage marker, LPS 7.5 mg/kg/h × 4 h + 100 μg/kg/h infusion for 3 h, blood after 4 h, mean ± standard deviation)?
**A.** 44.2 ± 7.1 U/ml

**Q.** What about the “ALT versus untreated control animals” value [1, 4] of the same compound?
**A.** not significantly different from untreated control animals

**Q.** What about the “TAT complex versus LPS-treated animals” value [1, 4] of the same compound?
**A.** significant lowering

**Q.** And the “creatinin versus untreated control animals” value [1, 4]?
**A.** not significantly different from untreated control animals

**Q.** What about the “plasma levels of IL-1β versus LPS-treated animals” value [1, 4] of the same compound?
**A.** significant (p<0.02) lowering

**Q.** And the “plasma levels of IL-6 versus LPS-treated animals” value [1, 4]?
**A.** significant (p<0.02) lowering

**Q.** What about the “plasma levels of TNF alpha versus LPS-treated animals” value [1, 4] of the same compound?
**A.** significant (p<0.02) lowering

**Q.** And the IL-6 [2, 5]?
**A.** 0.143 ± 0.083 ng/mL

**Q.** And the TAT [2, 5]?
**A.** 2.21 ± 0.79 ng/mL

**Q.** And the IL-6 [2, 6]?
**A.** 43.454 +/− 2.975 * ng/ml

**Q.** What about the TAT [2, 6] of the same compound?
**A.** 6.52 +/− 1.33 * ng/ml

**Q.** What about the “plasma levels of IL-6 versus untreated LPS animals” value [2, 7] of the same compound?
**A.** significant (p<0.02) reduction

**Q.** And the “plasma levels of the TAT complex versus untreated LPS animals” value [2, 7]?
**A.** significantly lower than in the untreated LPS animals (p<0.02) and were within the control range

**Q.** And the IL-6 [2, 8]?
**A.** 0.139 ± 0.086 ng/mL

**Q.** And the TAT [2, 8]?
**A.** 2.33 ± 0.89 ng/mL
